Experimental data: patent US11279683B2, “Thiophene derivatives as antiviral agents” (ENYO PHARMA, priority 2016, dated 2022)

What follows are compounds tested on H1N1 (influenza A/New Caledonia/20/99) (assay: microbe, parasite or virus in culture). Conditions: Influenza A virus, H1N1, A549, 48 h.
Type: cell-based

Point of comparison: `O=C(O)C1CCCCC1C(=O)Nc1sc2c(c1C(=O)N1CCN(c3ccc(Cl)cc3)CC1)CCC2` (stereo not shown) [Compound 36, 2-[[3-[4-(4-chlorophenyl)piperazine-1-carbonyl]-5,6-dihydro-4H-cyclopenta[b]thiophen-2-yl]carbamoyl]cyclohexanecarboxylic acid], IC50 21 µM. Against it:
- N#Cc1ccc(NC(=O)c2c(NC(=O)C3CCCCC3C(=O)O)sc3c2CCC3)cc1 (stereo not shown) [Compound 28, 2-[[3-[(4-Cyanophenyl)carbamoyl]-5,6-dihydro-4H-cyclopenta[b]thiophen-2-yl]carbamoyl]cyclohexanecarboxylic acid] — within 1.5-fold, 15.9 µM
- O=C(Nc1ncc(Cl)s1)c1c(NC(=O)C2CCCCC2C(=O)O)sc2c1CCC2 (stereo not shown) [Compound 29, 2-[[3-[(5-Chlorothiazol-2-yl)carbamoyl]-5,6-dihydro-4H-cyclopenta[b]thiophen-2-yl]carbamoyl]cyclohexanecarboxylic acid] — 3.1-fold lower, 6.78 µM
- O=C(Nc1ccc2c(c1)COC2)c1c(NC(=O)C2CCCCC2C(=O)O)sc2c1CCC2 (stereo not shown) [Compound 30, 2-[[3-(1,3-Dihydroisobenzofuran-5-ylcarbamoyl)-5,6-dihydro-4H-cyclopenta[b]thiophen-2-yl]carbamoyl]cyclohexanecarboxylic acid] — within 1.5-fold, 19.6 µM
- CS(=O)(=O)c1ccc(NC(=O)c2c(NC(=O)C3CCCCC3C(=O)O)sc3c2CCC3)cc1 (stereo not shown) [Compound 31, 2-[[3-[(4-Methylsulfonylphenyl)carbamoyl]-5,6-dihydro-4H-cyclopenta[b]thiophen-2-yl]carbamoyl]cyclohexanecarboxylic acid] — within 1.5-fold, 27.3 µM
- O=C(Nc1ccc(C(F)(F)F)nc1)c1c(NC(=O)C2CCCCC2C(=O)O)sc2c1CCC2 (stereo not shown) [Compound 32, 2-[[3-[[6-(Trifluoromethyl)-3-pyridyl]carbamoyl]-5,6-dihydro-4H-cyclopenta[b]thiophen-2-yl]carbamoyl]cyclohexanecarboxylic acid] — within 1.5-fold, 22 µM
- Cc1cncc(NC(=O)c2c(NC(=O)C3CCCCC3C(=O)O)sc3c2CCC3)c1 (stereo not shown) [Compound 33, 2-[[3-[(5-Methyl-3-pyridyl)carbamoyl]-5,6-dihydro-4H-cyclopenta[b]thiophen-2-yl]carbamoyl]cyclohexanecarboxylic acid] — within 1.5-fold, 27.4 µM
- CN(C(=O)c1c(NC(=O)C2CCCCC2C(=O)O)sc2c1CCC2)c1ccc(Cl)cc1 (stereo not shown) [Compound 34, 2-[[3-[(4-Chlorophenyl)-methyl-carbamoyl]-5,6-dihydro-4H-cyclopenta[b]thiophen-2-yl]carbamoyl]cyclohexanecarboxylic acid] — within 1.5-fold, 30.4 µM
- CC1CCC(NC(=O)c2c(NC(=O)C3CCCCC3C(=O)O)sc3c2CCC3)CC1 (stereo not shown) [Compound 35, 2-[[3-[(4-Methylcyclohexyl)carbamoyl]-5,6-dihydro-4H-cyclopenta[b]thiophen-2-yl]carbamoyl]cyclohexanecarboxylic acid] — 1.7-fold lower, 12.4 µM
- O=C(Nc1ccc(Cl)cc1)c1c(NC(=O)C2CCCCC2C(=O)O)sc2c1CCOC2 (stereo not shown) [Compound 37, 2-[[3-[(4-Chlorophenyl)carbamoyl]-5,7-dihydro-4H-thieno[2,3-c]pyran-2-yl]carbamoyl]cyclohexanecarboxylic acid] — 2.1-fold higher, 43.4 µM
- O=C(Nc1ccc(Cl)cc1)c1c(NC(=O)C2CCCCC2C(=O)O)sc2c1CSC2 (stereo not shown) [Compound 38, 2-[[3-[(4-Chlorophenyl)carbamoyl]-4,6-dihydrothieno[3,4-b]thiophen-2-yl]carbamoyl]cyclohexanecarboxylic acid] — 3.3-fold lower, 6.44 µM
- CC1OCc2sc(NC(=O)C3CCCCC3C(=O)O)c(C(=O)Nc3ccc(Cl)cc3)c21 (stereo not shown) [Compound 39, 2-[[3-[(4-Chlorophenyl)carbamoyl]-4-methyl-4,6-dihydrothieno[2,3-c]furan-2-yl]carbamoyl]cyclohexanecarboxylic acid] — 2.5-fold higher, 53.5 µM
- O=C(Nc1ccc(Cl)cc1)c1c(NC(=O)C2CCCCC2C(=O)O)sc2c1CCS2 (stereo not shown) [Compound 40, 2-[[4-[(4-Chlorophenyl)carbamoyl]-2,3-dihydrothieno[2,3-b]thiophen-5-yl]carbamoyl] cyclohexanecarboxylic acid] — 2.9-fold lower, 7.35 µM
- O=C(O)C=CC(=O)Nc1sc2c(c1C(=O)Nc1ccc(Cl)cc1)CCC2 [Compound 43, 4-[[3-[(4-Chlorophenyl)carbamoyl]-5,6-dihydro-4H-cyclopenta[b]thiophen-2-yl]amino]-4-oxo-but-2-enoic acid] — 1.6-fold higher, 33.2 µM
- O=C(O)c1ccccc1C(=O)Nc1sc2c(c1C(=O)Nc1ccc(Cl)cc1)CCC2 [Compound 44, 2-[[3-[(4-Chlorophenyl)carbamoyl]-5,6-dihydro-4H-cyclopenta[b]thiophen-2-yl]carbamoyl]benzoic acid] — within 1.5-fold, 21.6 µM
- O=C(O)CC1(CC(=O)Nc2sc3c(c2C(=O)Nc2ccc(Cl)cc2)CCC3)CCCC1 [Compound 45, 2-[1-[2-[[3-[(4-Chlorophenyl)carbamoyl]-5,6-dihydro-4H-cyclopenta[b]thiophen-2-yl]amino]-2-oxo-ethyl]cyclopentyl]acetic acid] — 2.6-fold lower, 8.1 µM
- O=C(Nc1ccc(Cl)cc1)c1c(NC(=O)C2CCCC2C(=O)O)sc2c1CCC2 (stereo not shown) [Compound 46, 2-[[3-[(4-Chlorophenyl)carbamoyl]-5,6-dihydro-4H-cyclopenta[b]thiophen-2-yl]carbamoyl]cyclopentanecarboxylic acid] — within 1.5-fold, 17.4 µM
- CC(C)(CC(=O)O)CC(=O)Nc1sc2c(c1C(=O)Nc1ccc(Cl)cc1)CCC2 [Compound 47, 5-[[3-[(4-Chlorophenyl)carbamoyl]-5,6-dihydro-4H-cyclopenta[b]thiophen-2-yl]amino]-3,3-dimethyl-5-oxo-pentanoic acid] — within 1.5-fold, 22.7 µM
- O=C(Nc1ccc(Cl)cc1)c1c(NC(=O)C2CC=CCC2C(=O)O)sc2c1CCC2 (stereo not shown) [Compound 48, 6-[[3-[(4-Chlorophenyl)carbamoyl]-5,6-dihydro-4H-cyclopenta[b]thiophen-2-yl]carbamoyl]cyclohex-3-ene-1-carboxylic acid] — 1.9-fold lower, 11.2 µM
- O=C(Nc1ccc(Cl)cc1)c1c(NC(=O)C2CCCCC2C(=O)O)sc2c1CCC2 (stereo not drawn) [Compound 49, 2-[[3-[(4-Chlorophenyl)carbamoyl]-5,6-dihydro-4H-cyclopenta[b]thiophen-2-yl]carbamoyl]cyclohexane-trans-carboxylic acid] — 1.7-fold lower, 12.2 µM
- O=C(O)CCC(=O)Nc1sc2c(c1C(=O)Nc1ccc(Cl)cc1)CCC2 [Compound 50, 4-[[3-[(4-Chlorophenyl)carbamoyl]-5,6-dihydro-4H-cyclopenta[b]thiophen-2-yl]amino]-4-oxo-butanoic acid] — 1.6-fold higher, 33.2 µM
- O=C(Nc1ccc(Cl)cc1)c1c(NC(=O)C2C3CCC(O3)C2C(=O)O)sc2c1CCC2 (stereo not shown) [Compound 51, 2-[[3-[(4-Chlorophenyl)carbamoyl]-5,6-dihydro-4H-cyclopenta[b]thiophen-2-yl]carbamoyl]-7-oxabicyclo[2.2.1]heptane-3-carboxylic acid] — within 1.5-fold, 29.7 µM
- O=C(Nc1ccc(Cl)cc1)c1c(NC(=O)C2CCCCC2)sc2c1CCC2 [Compound 52, N-(4-Chlorophenyl)-2-(cyclohexanecarbonylamino)-5,6-dihydro-4H-cyclopenta[b]thiophene-3-carboxamide] — within 1.5-fold, 29.3 µM
- O=C1CCCC(C(=O)Nc2sc3c(c2C(=O)Nc2ccc(Cl)cc2)CCC3)C1 (stereo not shown) [Compound 53, N-(4-Chlorophenyl)-2-[(3-oxocyclohexanecarbonyl)amino]-5,6-dihydro-4H-cyclopenta[b]thiophene-3-carboxamide] — 1.6-fold lower, 12.8 µM
- O=C(Nc1ccc(Cl)cc1)c1c(N2C(=O)C3CCCCC3C2=O)sc2c1CCC2 (stereo not shown) [Compound 54, N-(4-Chlorophenyl)-2-(1,3-dioxo-3a,4,5,6,7,7a-hexahydroisoindol-2-yl)-5,6-dihydro-4H-cyclopenta[b]thiophene-3-carboxamide] — 3.5-fold lower, 5.98 µM
- NC(=O)C1CCCCC1C(=O)Nc1sc2c(c1C(=O)Nc1ccc(Cl)cc1)CCC2 (stereo not shown) [Compound 55, N2-[3-[(4-Chlorophenyl)carbamoyl]-5,6-dihydro-4H-cyclopenta[b]thiophen-2-yl]cyclohexane-1,2-dicarboxamide] — within 1.5-fold, 27 µM
- O=C(Nc1ccc(Cl)cc1)c1c(NC(=O)C2CCCCC2CO)sc2c1CCC2 (stereo not shown) [Compound 56, N-(4-Chlorophenyl)-2-[[2-(hydroxymethyl)cyclohexanecarbonyl]amino]-5,6-dihydro-4H-cyclopenta[b]thiophene-3-carboxamide] — within 1.5-fold, 24 µM
- Cc1cccc(NC(=O)c2c(NC(=O)C3CCCCC3C(=O)O)sc3c2CCC3)c1 (stereo not shown) [Compound 58, 2-[[3-(m-Tolylcarbamoyl)-5,6-dihydro-4H-cyclopenta[b]thiophen-2-yl]carbamoyl]cyclohexanecarboxylic acid] — within 1.5-fold, 27.6 µM
- CCc1c(C)sc(NC(=O)C2CCCCC2C(=O)O)c1C(=O)Nc1ccc(Cl)cc1 (stereo not shown) [Compound 59, 2-[[3-[(4-Chlorophenyl)carbamoyl]-4-ethyl-5-methyl-2-thienyl]carbamoyl]cyclohexanecarboxylic acid] — 2.5-fold higher, 53.5 µM
- Cc1ccc(NC(=O)c2c(NC(=O)C3CC=CCC3C(=O)O)sc3c2CCCC3)cc1 (stereo not shown) [Compound 60, 6-[[3-(p-Tolylcarbamoyl)-4,5,6,7-tetrahydrobenzothiophen-2-yl]carbamoyl]cyclohex-3-ene-1-carboxylic acid] — 2.6-fold higher, 54.8 µM
- O=C(Nc1ccc(Cl)cc1)c1c(NC(=O)C2CCCCC2C(=O)O)sc2c1CCCC2 (stereo not drawn) [Compound 61, 2-[[3-[(4-Chlorophenyl)carbamoyl]-4,5,6,7-tetrahydrobenzothiophen-2-yl]carbamoyl]cyclohexane-cis-carboxylic acid] — 2.4-fold lower, 8.59 µM
- O=C(NCc1ccccc1)c1c(NC(=O)C2CCCCC2C(=O)O)sc2c1CCC2 (stereo not shown) [Compound 63, 2-[[3-(Benzylcarbamoyl)-5,6-dihydro-4H-cyclopenta[b]thiophen-2-yl]carbamoyl]cyclohexanecarboxylic acid] — within 1.5-fold, 21.4 µM
- COc1cccc(NC(=O)c2c(NC(=O)C3CCCCC3C(=O)O)sc3c2CCC3)c1 (stereo not shown) [Compound 64, 2-[[3-[(3-Methoxyphenyl)carbamoyl]-5,6-dihydro-4H-cyclopenta[b]thiophen-2-yl]carbamoyl]cyclohexanecarboxylic acid] — within 1.5-fold, 14.1 µM
- O=C(NC1CCCCC1)c1c(NC(=O)C2CCCCC2C(=O)O)sc2c1CCC2 (stereo not shown) [Compound 65, 2-[[3-(Cyclohexylcarbamoyl)-5,6-dihydro-4H-cyclopenta[b]thiophen-2-yl]carbamoyl]cyclohexanecarboxylic acid] — within 1.5-fold, 17.7 µM
